Test results as given in patent US6599499B1, “Uses of diterpenoid triepoxides as an anti-proliferative agent” (priority 1999, dated 2003).
“And” between values parts separate entries of the source, which are not always exact repeats. Equal values may be shown once.

Assays:
[1] = test system: Dx5 (MDR uterine sarcoma) cell line; experiment: cells
Protocol: (§1) Cells and Transfections. H23 (non-small cell lung cancer) and ZR-75 (breast cancer) cell lines were purchased from ATCC. The Bcl-2 expression vector was provided by Fred Hutchinson Cancer Research Center, Seattle, Wash. MES-SA and Dx5 cell lines were provided by Branimir Sikic (Stanford University). Cells were cultured in the appropriate medium with 10% FCS supplemented with L-glutamine, penicillin and streptomycin. To examine the effect of Bcl-2 on cell survival, the Bcl-2 expression vector or the vector alone was co-transfected with a β galactosidase expression vector (Invitrogen, Carlsbad, Calif.) at a 5:1 ratio using lipofectamine plus (GIBCO BRL, Gaithersburg, Md.) into Dx5 cells. After 36 h cells were stained with 5-bromo4-chloro-3-indolyl […]-D-galactopyranoside (X-gal). Cell survival was calculated as number of total cells-blue cells/total number of cells in a 90 mm^2 area from duplicate plates and expressed as the mean ±S.D.
(§2) Cell death reagents and assays. Cell viability was measured by an MTT assay as recently described (Lee et al. (1999) J. Biol. Chem. 274:13451-13455. z-VAD-fluoromethylketone (z-VAD.fmk) was obtained from Alexis Biochemicals, San Diego, Calif. The effect of z-VAD.fmk on cell viability was analyzed by annexin and propidium iodide staining followed by FACS analysis according to the manufacturer's protocol (Clontech Laboratories, Palo Alto, Calif.). The analysis of apoptosis in histologic sections was done by terminal deoxynucleotidyl transferase (TdT)-mediated d-UTP nick end labeling (TUNEL) of slides from paraffin sections of day 3 tumors harvested from the mice 24 h after the second of two daily treatments with PG490-88 or saline. TUNEL staining was done according to the manufacturer's protocol (Boehringer Mannheim, Indianapolis, Ind.) and then the histology slides were counterstained with methyl green. DNA was isolated from cells for analysis of internucleosomal DNA laddering followed by agarose gel electrophoresis and ethidium bromide staining.
(§3) In FIG. 1A, ZR-75 (breast cancer), H23 (non-small cell lung cancer) and Dx5 (MDR uterine sarcoma) cell lines were treated with PG490 at dosages shown and harvested 48 h later for analysis of cell viability by an MTT assay. Data is the mean of three experiments ±S.D. In FIG. 1B, DNA was isolated from untreated or PG490-treated cells 16 h after the addition of PG490 followed by agarose gel electrophoresis and ethidium bromide staining.

[2] = test system: H23 (non-small cell lung cancer) cell line; experiment: cells
Protocol: as §1, §2, §3

[3] = test system: ZR-75 (breast cancer) cell line; experiment: cells; conditions: ZR75, 48 h
Protocol: as §1, §2, §3

[4] = test system: p53 translation; experiment: p53 translation by [35S]methionine metabolic labeling of MCF-7 cells; format: cell-based, human; conditions: MCF-7, triptolide 20 ng/ml pretreatment 6 h
Protocol: Metabolic labeling of MCF-7cells. Cells were grown to 80% confluence followed by pretreatment with triptolide (20 ng/ml) for 6 h in the appropriate medium. Cells were washed twice with short-term labeling medium (RPMI with 5% dialyzed FCS supplemented with L-glutamine, penicillin, and streptomycin). To deplete intracellular pools of methionine short-term labeling medium was added for 15 min at 37° C., then replaced by short-term labeling medium containing 0.1 mCi/ml [^35S] methionine (Amersham, Inc.). Cells were labeled for 30 min at 37° C. and washed with ice-cold PBS before harvesting for immunoprecipitation. The cells were lysed using RIPA buffer supplemented with protease inhibitors and immunoprecipitated using an agarose-conjugated p53 mAb (Ab-6, Oncogene Research Products) followed by 10% SDS-PAGE. The intensity of labeled p53 protein was measured by NIH Image 1.62.

[5] = test system: HT1080 cells; experiment: Cell viability by trypan blue exclusion, HT1080 cells (Example 5)
Protocol: Cell Viability Assay. HT-1080 cells were seeded into 6-well plates at 2×10^5 per well the day before the treatment. For the inducible expression of exogenous p21 and LacZ, the stable transfectants were cultured in the presence of 5 μM ponasterone A for 16 h. […] The cells were untreated or treated with doxorubicin, triptolide, or the combination of both at indicated dosages for 8 h at 37° C. Subsequently, the medium was replaced with new media plus 5 μM ponasterone A. After 16 h incubation at 37° C., the number of viable cells within the same fields were determined by trypan blue exclusion with a 2% trypan blue solution.

[6] = test system: phosphorylated p53; experiment: p53 phosphorylation by in vivo [32P]orthophosphate labeling of HT1080 cells; format: cell-based, human; conditions: HT1080, triptolide 20 ng/ml, 3 h
Protocol: In Vivo [^32P]Orthophosphate Labeling. Subconfluent HT1080 cells were pretreated with 20 ng/ml triptolide for 2 h in Dulbecco's modified Eagle's medium supplemented with 10% fetal bovine serum and antibiotics. These cells were washed twice with 37 ° C. labeling medium (Dulbecco's modified Eagle's medium, 10% fetal bovine serum dialyzed against phosphate-free) lacking sodium phosphate. Cells were then labeled for an additional 1 h with the labeling medium containing 1 mCi/ml [32P]orthophosphate and 20 ng/ml triptolide. The labeling medium was removed, and the cells were washed three times with cold Tris-buffered saline (TBS). The cells were scraped in 1 ml of lysis buffer (1% Nonidet P40, 1% sodium deoxycholate, 0.1% SDS, 0.15 M NaCl, 0.01 M sodium phosphate, pH 7.2, 2 mM EDTA, 50 mM sodium fluoride, 0.2 mM sodium vanadate, and 100 units/ml aprotinin) and kept on ice for 10 min. Lysates were passed through 27-gauge needles and spun at 11,000×g for 10 min, and 100 μg of the supernatants were subjected to immunoprecipitation with p53 mAb (Ab-6) conjugated with agarose for 4 h. Samples were then spun at 2500 rpm at 4° C. for 5 min and washed three times with the lysis buffer. The pellets were boiled in SDS sample buffer and analyzed on 10% SDS-PAGE. The bands were visualized and quantified by Optiquant Phosphorlmager.

CC(C)[C@]12O[C@H]1[C@@H]1O[C@]13[C@]1(O[C@H]1C[C@H]1C4=C(CC[C@@]13C)C(=O)OC4)[C@@H]2O [PG490, triptolide]
difference in sensitivity between Dx5 cell line and parent MES-SA cell line [1]: No significant difference
cytotoxicity at 0.01 µg/mL ([1]; Homo sapiens, 48 h, read-out: decrease in cell viability): 65 to 70%
cytotoxicity at 0.02 µg/mL ([1]; Homo sapiens, 48 h, read-out: reduction of cell viability): > 80%
cytotoxicity at 0.01 µg/mL ([2]; Homo sapiens, NCI-H23, 48 h, read-out: decrease in cell viability): 65 to 70%
cytotoxicity at 0.02 µg/mL ([2]; Homo sapiens, NCI-H23, 48 h, read-out: reduction of cell viability): > 80%
cell death, % of cells ([2]; mutant p53 lung cancer cell line): over 80%
cytotoxicity at 0.01 µg/mL ([3]; read-out: decrease in cell viability): 24%
cytotoxicity at 0.02 µg/mL ([3]; read-out: reduction of cell viability): > 80%
increase in p53 translation [4]: 4.9 fold and 5 fold
effect on cell death by carboplatinum ([5]; A549 and HT1080 cells): enhanced cell death
cytotoxicity at 0.02 µg/mL ([5]; Homo sapiens, HT-1080, 24 h, read-out: reduction of HT1080 cell viability): 84%
increase in phosphorylated p53 compared with untreated cells [6]: 2-3 fold
